Experimental data reported in patent publication US20110280940A1, “Di-Vanilloyl And Tri-Vanilloyl Derivatives For Use In Anti-Cancer Therapy” (priority 2008, published 2011).

Key:
255 protein kinases = assay: Kinase inhibition profile of DLT95-Cl at 20 μM (33 PanQinase); type: biochemical, human; conditions: over the 255 kinases screened
Protocol: In view of the results in FIG. 5 and Table 7, the inventors performed a broader analysis on impairment of 255 protein kinases by DLT95-Cl compound of the invention.
255 kinases where tested with DLT95-Cl at 20 μM to establish the kinase inhibition profile of the compound.
(§1) The kinase inhibition profile of DLT95-Cl at 20 μM was determined using 255 protein kinases. Residual activity values were measured by testing each compound at one concentration in duplicate in each kinase assay. A radiometric protein kinase assay (33 PanQinase®Activity Assay) was used for measuring the kinase activity of 250 protein kinases. All kinase assays were performed in 96-well flashPlates™ from Perkin Elmer (Boston, Mass., USA) in a 50 μl reaction volume. […]
(§2) Incorporation of ^33Pi (counting of “cpm”) was determined with a microplate scintillation counter (Microbeta, Wallac).
For each kinase, the median value of the cpm of three wells with complete reaction cocktails, but without kinase, was defined as “low control” (n=2). This value reflects unspecific binding of radioactivity to the plate in the absence of protein kinase but in the presence of the substrate. […] The residual activity (in %) for each compound well was calculated by using the following formula: Res. Activity (%)=100×[(cpm of compound−low control)/(high control−low control)]

250 protein kinases = assay: Kinase inhibition profile of DLT11 at 20 μM (33 PanQinase); type: biochemical, human; conditions: out of 250 kinases
Protocol: as §1, with “DLT11” for “DLT95-Cl”, “250” for “255”, “volume. The reaction cocktail was pipetted in 4 steps in the following order: • 10 μl of non-radioactive ATP solution (in H2O) • 25 μl of assay buffer/[γ-33P]-ATP mixture • 5 μl of test sample in 10% DMSO • 10 μl of enzyme/substrate mixture” for “volume.”
as §2
For each kinase, the median value of the cpm of three wells with complete reaction cocktails, but without kinase, was defined as “low control” (n=3). This value reflects unspecific binding of radioactivity to the plate in the absence of protein kinase but in the presence of the substrate. […] The residual activity (in %) for each compound well was calculated by using the following formula: Res. Activity (%)=100×[(cpm of compound−low control)/(high control−low control)] […]

number of kinases that had their activity inhibited (250 protein kinases)	SMILES	number of kinases whose activity is ≧50% impaired (255 protein kinases)
–	O=C(OCc1cc(COC(=O)c2ccc(O)c(Cl)c2)cc(COC(=O)c2ccc(O)c(Cl)c2)c1)c1ccc(O)c(Cl)c1 [DLT95-Cl, [3,5-bis[(4-hydroxy-3-chloro-benzoyl)oxymethyl]phenyl]methyl 4-hydroxy-3-chloro-benzoate]	249
19	COc1cc(C(=O)OCCCCCCOC(=O)c2ccc(O)c(OC)c2)ccc1O [DLT11, Hexane-1,6-diyl bis-(4-hydroxy-3-methoxybenzoate)]	–
